Patent publication US10463651B2, “3-(1H-pyrrolo[3,2-C]pyridin-2-YL)-1H-indazoles and therapeutic uses thereof” (Samumed, LLC, priority 2015, dated 2019)

Tests used:
Assay type in all cases: cell-based
[1] = system: Wnt activity (Sp5-Luc reporter, SW480 colon carcinoma cells); assay: Screening assay for Wnt activity (Sp5-Luc reporter gene assay in SW480 cells); details: Homo sapiens; for EC50: Sp5-Luc reporter, SW480 cells, incubated overnight; for inhibition at 10 µM: SW480, read-out: percent inhibition at 10 μM
Procedure, shortened: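 SW480 colon carcinoma cells stably carrying Sp5 promoter (eight TCF/LEF sites)-driven firefly luciferase, plated at 4,000 cells/well in 1% FBS medium and incubated overnight at 37° C. Luminescence normalised to DMSO-only cells; EC50 from four-parameter variable-slope nonlinear regression.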

SW480 colon cancer cells = assay: Cell viability assay (CellTiter-Blue); details: Homo sapiens; for EC50: 96 h, SW480 cell viability, four days, CellTiter-Blue; for inhibition at 10 µM: SW480, 96 h, read-out: percent inhibition at 10 μM
Procedure, shortened: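 Fluorescence from resazurin reduced to resorufin by metabolically active cells was the read-out, taken after ~3 h with CellTiter-Blue.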

[2] = system: primary human fibroblasts derived from IPF patients (LL29 cells) treated with TGF-β1; assay: Inhibition of the fibrotic process (αSMA staining) in TGF-β1-treated fibroblasts; details: Fibroblast, 96 h; for EC50: % αSMA-positive LL29 cells, TGF-β1 20 ng/mL, 4 days; for inhibition at 10 µM: read-out: percent inhibition at 10 μM
Procedure, shortened: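 LL29 fibroblasts from IPF patients, 1,500 cells/well in F12 with 1% FBS, stimulated with TGF-β1; TGF-β1 plus DMSO wells as controls. Incubation 4 days, then SYTOX green 1 μM final for 30 min at room temperature. Fibrotic response read as αSMA staining.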

[3] = system: primary human mesenchymal stem cells (hMSCs); assay: Induction of chondrogenesis in hMSCs (Rhodamine B / Nile Red nodule imaging); details: for EC50: concentration required to induce 50% levels of chondrogenesis vs TGF-β3 positive control, read-out: Conc (nM) of 50% TGF-β3 activity; for Emax: maximum activity relative to TGF-β3 (10 ng/mL) positive control, read-out: Max. Activity as % TGF-β3 activity
Text: Representative compounds were screened using primary human mesenchymal stem cells (hMSCs) to determine their ability to induce chondrogenesis (process by which cartilage is developed).
Primary human mesenchymal stem cells (hMSCs) were purchased from Lonza (Walkersville, Md.) and expanded in Mesenchymal Stem Cell Growth Media (Lonza). Cells between passage 3 and 6 were used for the experiments.
Area of nodules in each well was normalized to the average of 3 DMSO treated wells on the same plate using Excel (Microsoft Inc.). The normalized averages (fold change over DMSO) of 2 or 3 replicate wells for each compound concentration were calculated. Due to solubility limitations of some of the compounds, curve fitting was incomplete leading to inaccurate EC50 determinations.
Using TGF-β3 as a positive control, the concentration of representative compounds required to induce 50% levels of chondrogenesis is reported. In addition, the maximum activity of each compound and the respective dose that each compound reached maximum chondrogenesis activity is reported.

IL-6 (THP-1 cells) = assay: IL-6 inhibition in LPS-stimulated THP-1 cells (HTRF); details: Homo sapiens; for EC50: IL6 by HTRF, THP-1 cells, 500 ng/mL LPS, 22 hours
Procedure, shortened: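 THP-1 cells, pre-cultured 24 h in 1% FBS medium, treated with compound 2 h at 37 °C, then stimulated with 500 ng/mL LPS for 22 h. Secreted IL-6 measured by HTRF as the 665/620 nm ratio. Values normalized to DMSO; EC50 from four-parameter fit, duplicates.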

EC50 [1] [nM]	EC50 (SW480 colon cancer cells) [nM]	EC50 [3] [nM]	EC50 (IL-6 (THP-1 cells)) [nM]	Structure (SMILES)	EC50 [2] [nM]	Emax [3] [%]	inhibition at 10 µM [1] [%]	inhibition at 10 µM (IL-6 (THP-1 cells); THP-1, read-out: percent inhibition at 10 M) [%]	inhibition at 10 µM (SW480 colon cancer cells) [%]	inhibition at 10 µM [2] [%]
1510	1050	10	1570	Fc1ccc(-c2nccc3[nH]c(-c4n[nH]c5ccc(-c6cncnc6)cc45)cc23)cc1 [Compound 55, 3-(4-(4-Fluorophenyl)-1H-pyrrolo[3,2-c]pyridin-2-yl)-5-(pyrimidin-5-yl)-1H-indazole]	326	194				
> 10000	2990		9400	CN(C)Cc1cncc(-c2ccc3[nH]nc(-c4cc5c(-c6ccc(F)cc6)nccc5[nH]4)c3c2)c1 [Compound 41, 1-(5-(3-(4-(4-Fluorophenyl)-1H-pyrrolo[3,2-c]pyridin-2-yl)-1H-indazol-5-yl)pyridin-3-yl)-N,N-dimethylmethanamine]	2650	46	55.7			
4710	1940	10	> 10000	CN(C)Cc1cncc(-c2ccc3[nH]nc(-c4cc5c(N6CCCCC6)nccc5[nH]4)c3c2)c1 [Compound 181, N,N-Dimethyl-1-(5-(3-(4-(piperidin-1-yl)-1H-pyrrolo[3,2-c]pyridin-2-yl)-1H-indazol-5-yl)pyridin-3-yl)methanamine]	3320	220		22.5		
233	821	2700	181	Fc1ccccc1-c1nccc2[nH]c(-c3n[nH]c4ccc(-c5cncc(CN6CCC(F)(F)C6)c5)cc34)cc12 [Compound 82, 5-(5-((3,3-Difluoropyrrolidin-1-yl)methyl)pyridin-3-yl)-3-(4-(2-fluorophenyl)-1H-pyrrolo[3,2-c]pyridin-2-yl)-1H-indazole]	221	172				
172	230	300	63	CS(=O)(=O)NCc1cc(F)cc(-c2nccc3[nH]c(-c4n[nH]c5ccc(-c6cncc(CN7CCC(F)(F)C7)c6)cc45)cc23)c1 [Compound 502, N-(3-(2-(5-(5-((3,3-Difluoropyrrolidin-1-yl)methyl)pyridin-3-yl)-1H-indazol-3-yl)-1H-pyrrolo[3,2-c]pyridin-4-yl)-5-fluorobenzyl)methanesulfonamide]	160	175				
170	221	2700	73	CC(C)C(=O)Nc1cncc(-c2ccc3[nH]nc(-c4cc5c(-c6ccccc6F)nccc5[nH]4)c3c2)c1 [Compound 65, N-(5-(3-(4-(2-Fluorophenyl)-1H-pyrrolo[3,2-c]pyridin-2-yl)-1H-indazol-5-yl)pyridin-3-yl)isobutyramide]	98	108				
2800	1000		1090	Fc1ccccc1-c1nccc2[nH]c(-c3n[nH]c4ccc(-c5cncc(CN6CCCCC6)c5)cc34)cc12 [Compound 71, 3-(4-(2-Fluorophenyl)-1H-pyrrolo[3,2-c]pyridin-2-yl)-5-(5-(piperidin-1-ylmethyl)pyridin-3-yl)-1H-indazole]	1940	16				
40	68	10	53	c1cncc(-c2ccc3[nH]nc(-c4cc5cnccc5[nH]4)c3c2)c1 [Compound 256, 5-(Pyridin-3-yl)-3-(1H-pyrrolo[3,2-c]pyridin-2-yl)-1H-indazole]	106	341				
418	549	10	78	O=C(Nc1cncc(-c2ccc3[nH]nc(-c4cc5c(-c6ccccc6F)nccc5[nH]4)c3c2)c1)C1CCCC1 [Compound 78, N-(5-(3-(4-(2-Fluorophenyl)-1H-pyrrolo[3,2-c]pyridin-2-yl)-1H-indazol-5-yl)pyridin-3-yl)cyclopentanecarboxamide]	841	71				
2960	963	900	456	CCNCc1cncc(-c2ccc3[nH]nc(-c4cc5c(N6CCCCC6)nccc5[nH]4)c3c2)c1 [Compound 174, N-((5-(3-(4-(Piperidin-1-yl)-1H-pyrrolo[3,2-c]pyridin-2-yl)-1H-indazol-5-yl)pyridin-3-yl)methyl)ethanamine]	1460	301				
1800	972	900	381	O=C(Nc1cncc(-c2ccc3[nH]nc(-c4cc5c(N6CCCCC6)nccc5[nH]4)c3c2)c1)C1CC1 [Compound 188, N-(5-(3-(4-(Piperidin-1-yl)-1H-pyrrolo[3,2-c]pyridin-2-yl)-1H-indazol-5-yl)pyridin-3-yl)cyclopropanecarboxamide]	9010	146				
285	255	30	77	O=C(Nc1cncc(-c2ccc3[nH]nc(-c4cc5cnccc5[nH]4)c3c2)c1)C1CCCCC1 [Compound 275, N-(5-(3-(1H-Pyrrolo[3,2-c]pyridin-2-yl)-1H-indazol-5-yl)pyridin-3-yl)cyclohexanecarboxamide]	110	155				
3360	1280	900	2860	CCNCc1cncc(-c2ccc3[nH]nc(-c4cc5c(-c6ccccc6F)nccc5[nH]4)c3c2)c1 [Compound 62, N-((5-(3-(4-(2-Fluorophenyl)-1H-pyrrolo[3,2-c]pyridin-2-yl)-1H-indazol-5-yl)pyridin-3-yl)methyl)ethanamine]	2490	59				
75	441	10	118	O=C(Nc1cncc(-c2ccc3[nH]nc(-c4cc5cnccc5[nH]4)c3c2)c1)C1CCC1 [Compound 273, N-(5-(3-(1H-Pyrrolo[3,2-c]pyridin-2-yl)-1H-indazol-5-yl)pyridin-3-yl)cyclobutanecarboxamide]	95	213				
> 10000	3700	900	8420	CN1CCN(c2nccc3[nH]c(-c4n[nH]c5ccc(-c6cncc(CN7CCCCC7)c6)cc45)cc23)CC1 [Compound 239, 3-(4-(4-Methylpiperazin-1-yl)-1H-pyrrolo[3,2-c]pyridin-2-yl)-5-(5-(piperidin-1-ylmethyl)pyridin-3-yl)-1H-indazole]	5120	55	51			
685	422	100	288	c1cc2[nH]c(-c3n[nH]c4ccc(-c5cncc(CN6CCCCC6)c5)cc34)cc2cn1 [Compound 267, 5-(5-(Piperidin-1-ylmethyl)pyridin-3-yl)-3-(1H-pyrrolo[3,2-c]pyridin-2-yl)-1H-indazole]	571	122				
3080	> 10000		35	CS(=O)(=O)NCc1cc(F)cc(-c2nccc3[nH]c(-c4n[nH]c5ccc(-c6cncnc6)cc45)cc23)c1 [Compound 503, N-(3-Fluoro-5-(2-(5-(pyrimidin-5-yl)-1H-indazol-3-yl)-1H-pyrrolo[3,2-c]pyridin-4-yl)benzyl)methanesulfonamide]	> 10000	40			32.7	15.5
421	> 10000		10	O=C(Nc1cncc(-c2ccc3[nH]nc(-c4cc5c(-c6cccnc6)nccc5[nH]4)c3c2)c1)c1ccccc1 [Compound 95, N-(5-(3-(4-(Pyridin-3-yl)-1H-pyrrolo[3,2-c]pyridin-2-yl)-1H-indazol-5-yl)pyridin-3-yl)benzamide]	> 10000	19			15.5	0
